The subject of this experiment is BDF1 mice, Adenocarcinoma 755 s.c., tumor weight T/C. The experiment is described as follows: NCI In Vivo Anticancer Drug Screen. Data for tumor model Adenocarcinoma 755 (subcutaneous) in B6D2F1 (BDF1) mice. Conditions: endpoint: mean tumor weight, higher = larger tumour. The method, boiled down:
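Values express treated (T) relative to vehicle-dosed control (C) animals, based on survival or tumour size measured after compound treatment of mice bearing a transplanted tumour.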

Setting [1] is: dose: 50.0 mg/kg/injection, schedule: Q01DX011 (ip), vehicle: carboxymethylcellulose (CMC).
Where [2] appears, read: dose: 100.0 mg/kg/injection, schedule: Q01DX011 (ip), vehicle: carboxymethylcellulose (CMC).
[3] abbreviates: dose: 25.0 mg/kg/injection, schedule: Q01DX011 (ip), vehicle: carboxymethylcellulose (CMC).
Where [4] appears, read: dose: 25.0 mg/kg/injection, schedule: Q01DX011 (ip), vehicle: methylcellulose (MC).
Where [5] appears, read: dose: 50.0 mg/kg/injection, schedule: Q01DX011 (ip), vehicle: methylcellulose (MC).

Several values for one entry are separate records, joined by “and”; a condition that tells them apart may be missing. Equal values may be shown once.

As to `CC1(C)O[C@@H]2C[C@H]3[C@@H]4CCC5=CC(=O)C=C[C@]5(C)[C@@]4(F)[C@@H](O)C[C@]3(C)[C@]2(C(=O)CO)O1`, the T/C (in general, the result in the treated group divided by that in the control group, in per cent) (dose: 0.7 mg/kg/injection, schedule: Q01DX011 (sc), vehicle: steriod suspending solution) is 38 % of control; the T/C (dose: 3.0 mg/kg/injection, schedule: Q01DX011 (sc), vehicle: steriod suspending solution) was 53 % of control; the T/C (dose: 6.0 mg/kg/injection, schedule: Q01DX011 (sc), vehicle: steriod suspending solution) was 40 % of control.

`N/C(=N\O)c1nsnc1N`: the T/C is 85 % of control under setting [1] and 71 % of control under setting [2].

Take `CCOC(=O)NP(=O)(N1CC1)N1CC1`: the T/C (dose: 2.37 mg/kg/injection, schedule: Q01DX011 (ip), vehicle: carboxymethylcellulose (CMC)) was 118 % of control; the T/C (dose: 2.5 mg/kg/injection, schedule: Q01DX011 (ip), vehicle: carboxymethylcellulose (CMC)) is 67 % of control; the T/C (dose: 4.75 mg/kg/injection, schedule: Q01DX011 (ip), vehicle: carboxymethylcellulose (CMC)) was 104 % of control; the T/C (dose: 5.0 mg/kg/injection, schedule: Q01DX011 (ip), vehicle: carboxymethylcellulose (CMC)) is 73 % of control; the T/C (dose: 7.6 mg/kg/injection, schedule: Q01DX011 (ip), vehicle: carboxymethylcellulose (CMC)) is 101 % of control; the T/C (dose: 8.0 mg/kg/injection, schedule: Q01DX011 (ip), vehicle: carboxymethylcellulose (CMC)) was 52 % of control. Besides, the T/C (dose: 9.5 mg/kg/injection, schedule: Q01DX011 (ip), vehicle: carboxymethylcellulose (CMC)) was 61 % of control and 75 % of control; the T/C (dose: 10.0 mg/kg/injection, schedule: Q01DX011 (ip), vehicle: carboxymethylcellulose (CMC)) is 58 % of control and 77 % of control; the T/C (dose: 12.66 mg/kg/injection, schedule: Q01DX011 (ip), vehicle: carboxymethylcellulose (CMC)) is 54 % of control; the T/C (dose: 13.3 mg/kg/injection, schedule: Q01DX011 (ip), vehicle: carboxymethylcellulose (CMC)) was 18 % of control; the T/C (dose: 19.0 mg/kg/injection, schedule: Q01DX011 (ip), vehicle: carboxymethylcellulose (CMC)) is 17 % of control and 20 % of control; the T/C (dose: 20.0 mg/kg/injection, schedule: Q01DX011 (ip), vehicle: carboxymethylcellulose (CMC)) is 14 % of control.

Consider `CC(CNC(=O)CCOS(C)(=O)=O)CNC(=O)CCOS(C)(=O)=O`, for which the T/C (dose: 6.25 mg/kg/injection, schedule: Q01DX011 (ip), vehicle: carboxymethylcellulose (CMC)) was 120 % of control; the T/C (dose: 12.5 mg/kg/injection, schedule: Q01DX011 (ip), vehicle: carboxymethylcellulose (CMC)) was 92 % of control; the T/C (dose: 14.0 mg/kg/injection, schedule: Q01DX011 (ip), vehicle: carboxymethylcellulose (CMC)) is 73 % of control; the T/C under setting [3] was 111 % of control; the T/C (dose: 28.0 mg/kg/injection, schedule: Q01DX011 (ip), vehicle: carboxymethylcellulose (CMC)) was 108 % of control; the T/C under setting [1] was 39 % of control. Also, the T/C was 72 % of control (dose: 57.0 mg/kg/injection, schedule: Q01DX011 (ip), vehicle: carboxymethylcellulose (CMC)); 15 % of control under setting [2]; 20 % of control and 36 % of control (dose: 113.0 mg/kg/injection, schedule: Q01DX011 (ip), vehicle: carboxymethylcellulose (CMC)); 2 % of control (dose: 200.0 mg/kg/injection, schedule: Q01DX011 (ip), vehicle: carboxymethylcellulose (CMC)); 4 % of control (dose: 225.0 mg/kg/injection, schedule: Q01DX011 (ip), vehicle: carboxymethylcellulose (CMC)).

Take `CC(=O)OCC(=O)[C@@]1(O)CC[C@H]2[C@@H]3CCC4=CC(=O)C=C[C@]4(C)[C@H]3[C@@H](O)C[C@@]21C`: the T/C is, setting by setting: (dose: 20.0 mg/kg/injection, schedule: Q01DX011 (sc), vehicle: steriod suspending solution) 23 % of control and 26 % of control; (dose: 40.0 mg/kg/injection, schedule: Q01DX011 (sc), vehicle: steriod suspending solution) 24 % of control and 26 % of control; (dose: 67.5 mg/kg/injection, schedule: Q01DX011 (sc), vehicle: steriod suspending solution) 30 % of control; (dose: 80.0 mg/kg/injection, schedule: Q01DX011 (sc), vehicle: steriod suspending solution) 88 % of control; (dose: 160.0 mg/kg/injection, schedule: Q01DX011 (sc), vehicle: steriod suspending solution) 40 % of control.

On to `O=c1[nH]c(=O)n(C2CC(O)C(CO)O2)cc1F` (stereo not given), for which the T/C is 124 % of control (dose: 13.12 mg/kg/injection, schedule: Q01DX011 (ip), vehicle: carboxymethylcellulose (CMC)); 72 % of control (dose: 15.0 mg/kg/injection, schedule: Q01DX011 (ip), vehicle: carboxymethylcellulose (CMC)); 66 % of control (dose: 19.0 mg/kg/injection, schedule: Q01DX011 (ip), vehicle: other); 54 % of control under setting [4]; 68 % of control (dose: 26.25 mg/kg/injection, schedule: Q01DX011 (ip), vehicle: carboxymethylcellulose (CMC)); 80 % of control (dose: 30.0 mg/kg/injection, schedule: Q01DX006 (ip), vehicle: other). Moreover, the T/C is, setting by setting: (dose: 30.0 mg/kg/injection, schedule: Q01DX011 (ip), vehicle: carboxymethylcellulose (CMC)) 37 % of control; (dose: 37.5 mg/kg/injection, schedule: Q01DX011 (ip), vehicle: other) 28 % of control; under setting [5], 25 % of control; (dose: 52.5 mg/kg/injection, schedule: Q01DX011 (ip), vehicle: carboxymethylcellulose (CMC)) 59 % of control; (dose: 60.0 mg/kg/injection, schedule: Q01DX006 (ip), vehicle: other) 37 % of control; (dose: 60.0 mg/kg/injection, schedule: Q01DX011 (ip), vehicle: carboxymethylcellulose (CMC)) 14 % of control. Moreover, the T/C (dose: 75.0 mg/kg/injection, schedule: Q01DX011 (ip), vehicle: other) is 3 % of control; the T/C (dose: 100.0 mg/kg/injection, schedule: Q01DX011 (ip), vehicle: methylcellulose (MC)) was 6 % of control; the T/C (dose: 105.0 mg/kg/injection, schedule: Q01DX011 (ip), vehicle: carboxymethylcellulose (CMC)) was 54 % of control; the T/C (dose: 120.0 mg/kg/injection, schedule: Q01DX006 (ip), vehicle: other) was 29 % of control; the T/C (dose: 121.0 mg/kg/injection, schedule: Q01DX011 (ip), vehicle: carboxymethylcellulose (CMC)) was 3 % of control; the T/C (dose: 240.0 mg/kg/injection, schedule: Q01DX006 (ip), vehicle: other) was 6 % of control. In addition, the T/C (dose: 480.0 mg/kg/injection, schedule: Q01DX006 (ip), vehicle: other) is 2 % of control.

On to `CCOC(O)C(F)(F)F` (stereo not given), for which the T/C runs as follows: (dose: 22.0 mg/kg/injection, schedule: Q01DX011 (ip), vehicle: methylcellulose (MC)) 110 % of control; under setting [3], 83 % of control; (dose: 44.0 mg/kg/injection, schedule: Q01DX011 (ip), vehicle: methylcellulose (MC)) 78 % of control; under setting [1], 50 % of control; (dose: 88.0 mg/kg/injection, schedule: Q01DX011 (ip), vehicle: methylcellulose (MC)) 30 % of control; under setting [2], 32 % of control.

In the case of `CC1CCN(C(=O)CCCl)c2ccccc21` (stereo not given), the T/C was 101 % of control under setting [4]; 71 % of control (dose: 75.0 mg/kg/injection, schedule: Q01DX011 (ip), vehicle: methylcellulose (MC)); 82 % of control (dose: 225.0 mg/kg/injection, schedule: Q01DX011 (ip), vehicle: methylcellulose (MC)).

In the case of `O=C(Nc1ncnc2c1ncn2C1CC(OC(=O)c2ccc([N+](=O)[O-])cc2)C(COC(=O)c2ccc([N+](=O)[O-])cc2)O1)c1ccccc1` (stereo not given), the T/C runs as follows: (dose: 16.7 mg/kg/injection, schedule: Q01DX011 (ip), vehicle: methylcellulose (MC)) 104 % of control; under setting [5], 102 % of control; (dose: 150.0 mg/kg/injection, schedule: Q01DX011 (ip), vehicle: methylcellulose (MC)) 62 % of control.

Turning to `Cc1cnc2nc(N)nc(N)c2n1`, the T/C runs as follows: under setting [1], 67 % of control; (dose: 75.0 mg/kg/injection, schedule: Q01DX011 (ip), vehicle: carboxymethylcellulose (CMC)) 33 % of control.

For the compound `CC(=O)[C@H]1CC[C@H]2[C@@H]3CCC4=CC(=O)C=C[C@]4(C)[C@H]3C(=O)C[C@]12C`, the T/C (dose: 66.0 mg/kg/injection, schedule: Q01DX011 (sc), vehicle: steriod suspending solution) is 62 % of control and 74 % of control; the T/C (dose: 132.0 mg/kg/injection, schedule: Q01DX011 (sc), vehicle: steriod suspending solution) is 37 % of control and 58 % of control; the T/C (dose: 264.0 mg/kg/injection, schedule: Q01DX011 (sc), vehicle: steriod suspending solution) is 25 % of control and 44 % of control; the T/C (dose: 528.0 mg/kg/injection, schedule: Q01DX011 (sc), vehicle: steriod suspending solution) is 28 % of control and 35 % of control.

These data come from PubChem BioAssay AID180 (DTP/NCI, 2004).
